Read-outs that look alike come from different tables or passages of the source.
Tested on: HCT15 cells
Assay: MDR cell based killing assay, HCT15 cells with or without Verapamil (CellTiter-Glo)
Set-up: species or system human
Conditions: Homo sapiens
Method in brief: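 CellTiter-Glo luminescence after 5-day exposure gave viability of 1000 HCT15 cells per well, grown in RPMI/10% FBS ± 5 ug/mL Verapamil. Payload tested from 100 nM down to 15 pM in threefold steps; four-parameter logistic IC50 in molar; MDR shift expressed as −Verapamil/+Verapamil IC50 ratio.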

[1] = HCT-15, read-out: HCT-15 with verapamil IC50

Row | Structure (SMILES) | IC50 (HCT-15, read-out: HCT-15 IC50) [pM] | IC50 [1] [pM]
1 | CCCCCCN(C(=O)[C@@H](NC(=O)[C@H]1CCCCN1)[C@@H](C)CC)[C@H](C[C@@H](OC(C)=O)c1nc(C(=O)N[C@@H](Cc2ccc(N)cc2)CC(C)(C)C(=O)O)cs1)C(C)C [Compound P18, (4S)-4-({2-[(1R,3R)-1-(acetyloxy)-3-[(2S,3S)—N-hexyl-3-methyl-2-[(2R)-piperidin-2-ylformamido]pentanamido]-4-methylpentyl]-1,3-thiazol-4-yl}formamido)-5-(4-aminophenyl)-2,2-dimethylpentanoic Acid] | 980 | 50
2 | C#CCCCON(C(=O)[C@@H](NC(=O)[C@H]1CCCCN1C)[C@@H](C)CC)[C@H](C[C@@H](OC(C)=O)c1nc(C(=O)N[C@@H](Cc2ccc(NC(=O)[C@H](N)CCC(=O)O)cc2)CC(C)(C)C(=O)O)cs1)C(C)C [Compound P41, (4S)-4-({2-[(1R,3R)-1-(acetyloxy)-4-methyl-3-[(2S,3S)-3-methyl-2-{[(2R)-1-methylpiperidin-2-yl]formamido}-N-(pent-4-yn-1-yloxy)pentanamido]pentyl]-1,3-thiazol-4-yl}formamido)-5-{4-[(2R)-2-amino-4-carboxybutanamido]phenyl}-2,2-dimethylpentanoic Acid] | 82700 | 
3 | CCCCCCN(C(=O)[C@@H](NC(=O)[C@H]1CCCCN1C)[C@@H](C)CC)[C@H](C[C@@H](OCC)c1nc(C(=O)N[C@@H](Cc2ccc(N)cc2)CC(C)(C)C(=O)O)cs1)C(C)C [Compound P8, (4S)-5-(4-aminophenyl)-4-({2-[(1R,3R)-1-ethoxy-3-[(2S,3S)—N-hexyl-3-methyl-2-{[(2R)-1-methylpiperidin-2-yl]formamido}pentanamido]-4-methylpentyl]-1,3-thiazol-4-yl}formamido)-2,2-dimethylpentanoic Acid] | 240 | 60
4 | CCCCCCN(C(=O)[C@@H](NC(=O)[C@@]1(C)CCCN1)[C@@H](C)CC)[C@H](C[C@@H](OC(C)=O)c1nc(C(=O)N[C@@H](Cc2ccc(N)c(F)c2)CC(C)(C)C(=O)O)cs1)C(C)C [Compound P15, (4S)-4-({2-[(1R,3R)-1-(acetyloxy)-3-[(2S,3S)—N-hexyl-3-methyl-2-{[(2R)-2-methylpyrrolidin-2-yl]formamido}pentanamido]-4-methylpentyl]-1,3-thiazol-4-yl}formamido)-5-(4-amino-3-fluorophenyl)-2,2-dimethylpentanoic Acid] | 1010 | 190
5 | CCCCCCN(C(=O)[C@@H](NC(=O)[C@H]1CCCCN1C)[C@@H](C)CC)[C@H](C[C@@H](OC(C)=O)c1nc(C(=O)N[C@@H](Cc2ccc(F)cc2)CC(C)(C)C(=O)O)cs1)C(C)C [Compound P10, (4S)-4-({2-[(1R,3R)-1-(acetyloxy)-3-[(2S,3S)—N-hexyl-3-methyl-2-{[(2R)-1-methylpiperidin-2-yl]formamido}pentanamido]-4-methylpentyl]-1,3-thiazol-4-yl}formamido)-5-(4-fluorophenyl)-2,2-dimethylpentanoic Acid] | 240 | 90
